Reference: PubChem BioAssay AID2060506 (Molecular Pharmacology Branch, DTP, NCI, 2025)

System: 598228-144-R-J1-PDC complex spheroid viability
Test: Anticancer human tumor 598228-144-R-J1-PDC patient-derived serous endometrial adenocarcinoma cell line growth inhibition [GQUAD]
Details: for IC50: curve of first compound; for viability, T/C: stronger effect = lower value
Summary of the method: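 Multi-cell-type spheroids of tumor cells with HUVEC and mesenchymal stem cells, treated with drug combinations. Concentrations descend in half-log steps from near clinical Cmax, or from 10 microM where Cmax is unknown; viability read-out.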

[1] = second compound 0.0316 µM, first compound 0.0316 µM
[2] = second compound 0.0316 µM, first compound 0.1 µM
[3] = second compound 0.0316 µM, first compound 0.316 µM
[4] = second compound 0.0316 µM, first compound 1 µM
[5] = second compound 0.0316 µM, first compound 3.16 µM
[6] = second compound 0.0316 µM, first compound 10 µM
[7] = second compound 0.1 µM, first compound 0.0316 µM
[8] = second compound 0.1 µM, first compound 0.1 µM
[9] = second compound 0.1 µM, first compound 0.316 µM
[10] = second compound 0.1 µM, first compound 1 µM
[11] = second compound 0.1 µM, first compound 3.16 µM
[12] = second compound 0.1 µM, first compound 10 µM
[13] = second compound 0.316 µM, first compound 0.0316 µM
[14] = second compound 0.316 µM, first compound 0.1 µM
[15] = second compound 0.316 µM, first compound 0.316 µM
[16] = second compound 0.316 µM, first compound 1 µM
[17] = second compound 0.316 µM, first compound 3.16 µM
[18] = second compound 0.316 µM, first compound 10 µM
[19] = second compound 1 µM, first compound 0.0316 µM
[20] = second compound 1 µM, first compound 0.1 µM
[21] = second compound 1 µM, first compound 0.316 µM
[22] = second compound 1 µM, first compound 1 µM
[23] = second compound 1 µM, first compound 3.16 µM
[24] = second compound 1 µM, first compound 10 µM
[25] = second compound 3.16 µM, first compound 0.0316 µM
[26] = second compound 3.16 µM, first compound 0.1 µM
[27] = second compound 3.16 µM, first compound 0.316 µM
[28] = second compound 3.16 µM, first compound 1 µM
[29] = second compound 3.16 µM, first compound 3.16 µM
[30] = second compound 3.16 µM, first compound 10 µM
[31] = second compound 10 µM, first compound 0.0316 µM
[32] = second compound 10 µM, first compound 0.1 µM
[33] = second compound 10 µM, first compound 0.316 µM
[34] = second compound 10 µM, first compound 1 µM
[35] = second compound 10 µM, first compound 3.16 µM
[36] = second compound 10 µM, first compound 10 µM
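Further: spheroids exposed to the agents for one week before reading.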
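Wherever viability, T/C is given: percent of vehicle DMSO control viability so 100% = untreated growth.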

## O=C(c1cc(Cc2n[nH]c(=O)c3ccccc23)ccc1F)N1CCN(C(=O)C2CC2)CC1 + Cc1[nH]c2ccc(F)cc2c1-c1nc2c3cccnc3c3ncccc3c2[nH]1
Second compound 0.0316 µM
  IC50: > 10 µM
Second compound 0.1 µM
  IC50: > 10 µM
Second compound 0.316 µM
  IC50: > 10 µM
Second compound 1 µM
  IC50: > 10 µM
Second compound 3.16 µM
  IC50: < 0.0316 µM
Second compound 10 µM
  IC50: > 10 µM
[1]
  viability, T/C: 110%
[2]
  viability, T/C: 95.2%
[3]
  viability, T/C: 92.1%
[4]
  viability, T/C: 105%
[5]
  viability, T/C: 96.4%
[6]
  viability, T/C: 97.5%
[7]
  viability, T/C: 91.4%
[8]
  viability, T/C: 107%
[9]
  viability, T/C: 87.8%
[10]
  viability, T/C: 88.3%
[11]
  viability, T/C: 85.8%
[12]
  viability, T/C: 73.8%
[13]
  viability, T/C: 72.9%
[14]
  viability, T/C: 90.7%
[15]
  viability, T/C: 78%
[16]
  viability, T/C: 79%
[17]
  viability, T/C: 68.7%
[18]
  viability, T/C: 71%
[19]
  viability, T/C: 56.1%
[20]
  viability, T/C: 66.6%
[21]
  viability, T/C: 64.3%
[22]
  viability, T/C: 67.1%
[23]
  viability, T/C: 60.1%
[24]
  viability, T/C: 58.1%
[25]
  viability, T/C: 40.8%
[26]
  viability, T/C: 44.4%
[27]
  viability, T/C: 38.6%
[28]
  viability, T/C: 42%
[29]
  viability, T/C: 50.8%
[30]
  viability, T/C: 45.4%
[31]
  viability, T/C: 70.9%
[32]
  viability, T/C: 57.8%
[33]
  viability, T/C: 65.9%
[34]
  viability, T/C: 61.5%
[35]
  viability, T/C: 49.6%
[36]
  viability, T/C: 61.6%

## CC1COCCN1c1cc(C2(S(C)(=N)=O)CC2)nc(-c2ccnc3[nH]ccc23)n1 (stereo unspecified) + CN(C)c1ccc(Nc2c3ccc(NC(=O)CCN4CCCC4)cc3nc3cc(NC(=O)CCN4CCCC4)ccc23)cc1
Second compound 0.0316 µM
  IC50: 2.87 µM
Second compound 0.1 µM
  IC50: 8.67 µM
Second compound 0.316 µM
  IC50: > 10 µM
Second compound 1 µM
  IC50: > 10 µM
Second compound 3.16 µM
  IC50: > 10 µM
Second compound 10 µM
  IC50: 1.73 µM
[1]
  viability, T/C: 91.7%
[2]
  viability, T/C: 117%
[3]
  viability, T/C: 102%
[4]
  viability, T/C: 81.5%
[5]
  viability, T/C: 46.5%
[6]
  viability, T/C: 47%
[7]
  viability, T/C: 97.7%
[8]
  viability, T/C: 122%
[9]
  viability, T/C: 98.7%
[10]
  viability, T/C: 98.3%
[11]
  viability, T/C: 62.7%
[12]
  viability, T/C: 48.3%
[13]
  viability, T/C: 97.1%
[14]
  viability, T/C: 136%
[15]
  viability, T/C: 85%
[16]
  viability, T/C: 61.8%
[17]
  viability, T/C: 61.6%
[18]
  viability, T/C: 45.9%
[19]
  viability, T/C: 125%
[20]
  viability, T/C: 96.6%
[21]
  viability, T/C: 103%
[22]
  viability, T/C: 70.8%
[23]
  viability, T/C: 69.2%
[24]
  viability, T/C: 60.1%
[25]
  viability, T/C: 125%
[26]
  viability, T/C: 89.2%
[27]
  viability, T/C: 99.4%
[28]
  viability, T/C: 69.4%
[29]
  viability, T/C: 61.7%
[30]
  viability, T/C: 57.7%
[31]
  viability, T/C: 95.8%
[32]
  viability, T/C: 88.5%
[33]
  viability, T/C: 89.9%
[34]
  viability, T/C: 64.7%
[35]
  viability, T/C: 33.9%
[36]
  viability, T/C: 26.6%

## Cc1[nH]c2ccccc2c1CCNCc1ccc(/C=C/C(=O)NO)cc1 + CN(C)c1ccc(Nc2c3ccc(NC(=O)CCN4CCCC4)cc3nc3cc(NC(=O)CCN4CCCC4)ccc23)cc1
Second compound 0.0316 µM
  IC50: 0.0387 µM
Second compound 0.1 µM
  IC50: 0.0485 µM
Second compound 0.316 µM
  IC50: 0.0541 µM
Second compound 1 µM
  IC50: 0.043 µM
Second compound 3.16 µM
  IC50: 0.0443 µM
Second compound 10 µM
  IC50: 0.0196 µM
Second compound 0.0316 µM, first compound 0.000999 µM
  viability, T/C: 113%
Second compound 0.0316 µM, first compound 0.00316 µM
  viability, T/C: 94.7%
Second compound 0.0316 µM, first compound 0.00999 µM
  viability, T/C: 103%
[1]
  viability, T/C: 46.6%
Second compound 0.0316 µM, first compound 0.0999 µM
  viability, T/C: 29.1%
[3]
  viability, T/C: 1.08%
Second compound 0.1 µM, first compound 0.000999 µM
  viability, T/C: 91.7%
Second compound 0.1 µM, first compound 0.00316 µM
  viability, T/C: 107%
Second compound 0.1 µM, first compound 0.00999 µM
  viability, T/C: 86%
[7]
  viability, T/C: 64.7%
Second compound 0.1 µM, first compound 0.0999 µM
  viability, T/C: 25.8%
[9]
  viability, T/C: 0.89%
Second compound 0.316 µM, first compound 0.000999 µM
  viability, T/C: 114%
Second compound 0.316 µM, first compound 0.00316 µM
  viability, T/C: 96.8%
Second compound 0.316 µM, first compound 0.00999 µM
  viability, T/C: 95.7%
[13]
  viability, T/C: 70.7%
Second compound 0.316 µM, first compound 0.0999 µM
  viability, T/C: 26.9%
[15]
  viability, T/C: 0.69%
Second compound 1 µM, first compound 0.000999 µM
  viability, T/C: 96.9%
Second compound 1 µM, first compound 0.00316 µM
  viability, T/C: 120%
Second compound 1 µM, first compound 0.00999 µM
  viability, T/C: 91.2%
[19]
  viability, T/C: 59.1%
Second compound 1 µM, first compound 0.0999 µM
  viability, T/C: 23.5%
[21]
  viability, T/C: 2.25%
Second compound 3.16 µM, first compound 0.000999 µM
  viability, T/C: 99.9%
Second compound 3.16 µM, first compound 0.00316 µM
  viability, T/C: 103%
Second compound 3.16 µM, first compound 0.00999 µM
  viability, T/C: 87.9%
[25]
  viability, T/C: 66.7%
Second compound 3.16 µM, first compound 0.0999 µM
  viability, T/C: 13.9%
[27]
  viability, T/C: 0.99%
Second compound 10 µM, first compound 0.000999 µM
  viability, T/C: 82.3%
Second compound 10 µM, first compound 0.00316 µM
  viability, T/C: 102%
Second compound 10 µM, first compound 0.00999 µM
  viability, T/C: 70.5%
[31]
  viability, T/C: 33.6%
Second compound 10 µM, first compound 0.0999 µM
  viability, T/C: 8.01%
[33]
  viability, T/C: 0.44%
